Molecules are shown by their SMILES.

One assay addresses human plasma kallikrein (Homo sapiens, UniProt P03952). The experiment in a line: Kallikrein inhibition assay utilizing a quenched AMC peptide substrate (FLINT). It counts as biochemical. The settings on record: 11-point, 3-fold serial dilution, top 1 μM; 30 min preincubation; 2 nM kallikrein; 50 μM Z-Gly-Pro-Arg-AMC; kinetic reads over 30 min. An outline of the steps: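 Human plasma kallikrein (2 nM final) was pre-incubated 30 min at room temperature with compound (11-point 3-fold series, top 1 μM, 2% DMSO) in Tris pH 7.5, NaCl, CaCl2, BSA, CHAPS buffer. Reaction started with 50 μM Z-Gly-Pro-Arg-AMC (KM 40 μM), and fluorescence (340/440 nm) was read kinetically over 30 min. IC50 came from a 4-parameter logistic fit.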

A further assay deals with Factor XIa (Homo sapiens, UniProt P03951). The experiment in a line: Factor XIa inhibition assay utilizing a fluorophore-quencher pair peptide substrate (FLINT). The note with it: 11-point, 3-fold serial dilution, top 100 nM; 30 min preincubation; 15 μM 5Fam-KLTRAETV-K5Tamra substrate; kinetic reads over 30 min; read-out: FXIa Inhibition IC50. The class given is biochemical. The procedure, abridged:
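FXIa ([…]) preincubated 30 min with compound (11-point, 3-fold, top 100 nM, 2% DMSO) in Tris pH 7.5, NaCl, CaCl2, BSA, CHAPS; 15 μM 5Fam-KLTRAETV-K5Tamra substrate then added. Fluorescence (485/520 nm) read kinetically over 30 min at room temperature; IC50 by 4-parameter fit.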

human plasma kallikrein, sequence (P03952 391-638 limits assumed): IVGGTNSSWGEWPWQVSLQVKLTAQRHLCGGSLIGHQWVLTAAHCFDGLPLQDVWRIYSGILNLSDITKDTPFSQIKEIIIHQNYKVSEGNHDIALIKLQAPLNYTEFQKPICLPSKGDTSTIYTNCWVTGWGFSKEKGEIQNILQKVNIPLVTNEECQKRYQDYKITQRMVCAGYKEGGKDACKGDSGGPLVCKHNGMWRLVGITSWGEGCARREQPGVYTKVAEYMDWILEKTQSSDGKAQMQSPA
human plasma kallikrein, sequence (P03952 20-390 partner limits assumed): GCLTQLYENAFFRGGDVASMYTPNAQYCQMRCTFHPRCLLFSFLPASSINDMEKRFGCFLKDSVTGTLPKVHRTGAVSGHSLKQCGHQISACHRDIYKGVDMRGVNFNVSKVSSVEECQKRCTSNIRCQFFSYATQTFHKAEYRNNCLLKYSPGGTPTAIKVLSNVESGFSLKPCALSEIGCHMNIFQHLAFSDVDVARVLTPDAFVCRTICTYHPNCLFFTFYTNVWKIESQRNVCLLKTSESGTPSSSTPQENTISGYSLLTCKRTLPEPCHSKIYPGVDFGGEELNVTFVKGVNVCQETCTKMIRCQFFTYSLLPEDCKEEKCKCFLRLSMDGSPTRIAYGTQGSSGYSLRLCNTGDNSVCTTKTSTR
Factor XIa, sequence (P03951 388-625 limits assumed): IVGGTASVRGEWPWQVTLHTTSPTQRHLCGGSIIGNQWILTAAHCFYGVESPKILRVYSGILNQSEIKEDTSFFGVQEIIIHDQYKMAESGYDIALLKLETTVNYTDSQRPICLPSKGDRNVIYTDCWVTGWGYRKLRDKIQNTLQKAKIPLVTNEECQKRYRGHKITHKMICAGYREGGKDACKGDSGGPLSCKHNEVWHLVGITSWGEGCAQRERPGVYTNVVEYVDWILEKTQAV
Factor XIa, sequence (P03951 19-387 partner limits assumed): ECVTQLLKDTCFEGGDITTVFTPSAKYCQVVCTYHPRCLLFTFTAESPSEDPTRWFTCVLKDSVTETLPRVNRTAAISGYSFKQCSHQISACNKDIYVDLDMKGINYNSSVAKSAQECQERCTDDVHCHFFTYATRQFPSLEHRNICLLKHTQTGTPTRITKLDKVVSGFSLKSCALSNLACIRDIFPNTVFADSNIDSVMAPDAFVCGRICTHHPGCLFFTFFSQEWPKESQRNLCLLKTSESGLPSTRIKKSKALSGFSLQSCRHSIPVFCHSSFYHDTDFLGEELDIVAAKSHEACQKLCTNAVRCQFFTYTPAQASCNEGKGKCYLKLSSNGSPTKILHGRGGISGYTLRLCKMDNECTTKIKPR

On to `O=C(Nc1ccc2[nH]c(=O)cc(O)c2c1)[C@@H]1CCC2CC(c3c(-n4cnnn4)ccc(Cl)c3F)=CC(=O)N21` (mixture of isomers) [ID No. 64, (3S)-7-[3-Chloro-2-fluoro-6-(tetrazol-1-yl)phenyl]-N-(4-hydroxy-2-oxo-1H-quinolin-6-yl)-5-oxo-2,3,8,8a-tetrahydro-1H-indolizine-3-carboxamide], for which the IC50 at human plasma kallikrein was 9.5 nM; at Factor XIa, 3 nM.

On to `O=C(Nc1ccc(-c2cnn[nH]2)cc1)[C@@H]1CCC2CC(c3c(-n4cnnn4)ccc(Cl)c3F)=CC(=O)N21` (mixture of isomers) [ID No. 68, (3S)-7-[3-Chloro-2-fluoro-6-(tetrazol-1-yl)phenyl]-5-oxo-N-[4-(1H-triazol-5-yl)phenyl]-2,3,8,8a-tetrahydro-1H-indolizine-3-carboxamide], for which the IC50 against human plasma kallikrein worked out at 47.1 nM; at Factor XIa, 1.7 nM.

In the case of `O=C(Nc1ccc(-c2nc[nH]n2)cc1)[C@@H]1CCC2CC(c3c(-n4cnnn4)ccc(Cl)c3F)=CC(=O)N21` (mixture of isomers) [ID No. 69, (3S)-7-[3-Chloro-2-fluoro-6-(tetrazol-1-yl)phenyl]-5-oxo-N-[4-(1H-1,2,4-triazol-3-yl)phenyl]-2,3,8,8a-tetrahydro-1H-indolizine-3-carboxamide], the IC50 against human plasma kallikrein turned out to be 52.3 nM; on Factor XIa, 7.3 nM.

For `Cn1nnnc1-c1ccc(NC(=O)[C@@H]2CCC3CC(c4c(-n5cnnn5)ccc(Cl)c4F)=CC(=O)N32)cc1` (mixture of isomers) [ID No. 70, (3S)-7-[3-Chloro-2-fluoro-6-(tetrazol-1-yl)phenyl]-N-[4-(1-methyltetrazol-5-yl)phenyl]-5-oxo-2,3,8,8a-tetrahydro-1H-indolizine-3-carboxamide], the 50% inhibitory concentration (IC50) against human plasma kallikrein was determined as 436 nM; at Factor XIa, 84.8 nM.

Regarding `Cn1nncc1-c1ccc(NC(=O)[C@@H]2CCC3CC(c4c(-n5cnnn5)ccc(Cl)c4F)=CC(=O)N32)cc1` (mixture of isomers) [ID No. 71, (3S)-7-[3-Chloro-2-fluoro-6-(tetrazol-1-yl)phenyl]-N-[4-(3-methyltriazol-4-yl)phenyl]-5-oxo-2,3,8,8a-tetrahydro-1H-indolizine-3-carboxamide], the IC50 is 156 nM against human plasma kallikrein and 46 nM at Factor XIa.

In the case of `O=C(Nc1ccc(-c2nnn[nH]2)cc1)[C@@H]1CCC2CC(c3c(-n4cnnn4)ccc(Cl)c3F)=CC(=O)N21` (mixture of isomers) [ID No. 72, (3S)-7-[3-Chloro-2-fluoro-6-(tetrazol-1-yl)phenyl]-5-oxo-N-[4-(1H-tetrazol-5-yl)phenyl]-2,3,8,8a-tetrahydro-1H-indolizine-3-carboxamide], the results for the IC50 at human plasma kallikrein and at Factor XIa were 20.4 nM and 0.7 nM, respectively.

On to `O=C(Nc1ccc(-n2cnnn2)cc1)[C@@H]1CCC2CC(c3c(-n4cnnn4)ccc(Cl)c3F)=CC(=O)N21` (mixture of isomers) [ID No. 73, (3S)-7-[3-Chloro-2-fluoro-6-(tetrazol-1-yl)phenyl]-5-oxo-N-[4-(tetrazol-1-yl)phenyl]-2,3,8,8a-tetrahydro-1H-indolizine-3-carboxamide], for which the IC50 at human plasma kallikrein is 156 nM; at Factor XIa, 26.3 nM.

For `O=C(Nc1ccc(-c2ncc[nH]2)cc1)[C@@H]1CCC2CC(c3c(-n4cnnn4)ccc(Cl)c3F)=CC(=O)N21` (mixture of isomers) [ID No. 74, (3S)-7-[3-Chloro-2-fluoro-6-(tetrazol-1-yl)phenyl]-N-[4-(1H-imidazol-2-yl)phenyl]-5-oxo-2,3,8,8a-tetrahydro-1H-indolizine-3-carboxamide], the results for the IC50 against human plasma kallikrein and at Factor XIa were 40.7 nM and 2 nM, respectively.

For `O=C(Nc1ccc(-c2n[nH]c(=O)o2)cc1)[C@@H]1CCC2CC(c3c(-n4cnnn4)ccc(Cl)c3F)=CC(=O)N21` (mixture of isomers) [ID No. 75, (3S)-7-[3-Chloro-2-fluoro-6-(tetrazol-1-yl)phenyl]-5-oxo-N-[4-(2-oxo-3H-1,3,4-oxadiazol-5-yl)phenyl]-2,3,8,8a-tetrahydro-1H-indolizine-3-carboxamide], the figures for the IC50 on human plasma kallikrein and on Factor XIa were 11.2 nM and 1.8 nM, respectively.

In the case of `O=C(Nc1ccc(-c2nc(=O)o[nH]2)cc1)[C@@H]1CCC2CC(c3c(-n4cnnn4)ccc(Cl)c3F)=CC(=O)N21` (mixture of isomers) [ID No. 76, (3S)-7-[3-Chloro-2-fluoro-6-(tetrazol-1-yl)phenyl]-5-oxo-N-[4-(5-oxo-2H-1,2,4-oxadiazol-3-yl)phenyl]-2,3,8,8a-tetrahydro-1H-indolizine-3-carboxamide], the results for the IC50 against human plasma kallikrein and at Factor XIa were 22.2 nM and 0.3 nM, respectively.

Regarding `Cn1cnc(-c2ccc(NC(=O)[C@@H]3CCC4CC(c5c(-n6cnnn6)ccc(Cl)c5F)=CC(=O)N43)cc2)n1` (mixture of isomers) [ID No. 77, (3S)-7-[3-Chloro-2-fluoro-6-(tetrazol-1-yl)phenyl]-N-[4-(1-methyl-1,2,4-triazol-3-yl)phenyl]-5-oxo-2,3,8,8a-tetrahydro-1H-indolizine-3-carboxamide], the IC50 is 63.5 nM on human plasma kallikrein and 8 nM on Factor XIa.

Consider `CC1C[C@@H](C(=O)Nc2ccc3ncccc3c2)N2C(=O)C=C(c3c(-n4cnnn4)ccc(Cl)c3F)CC12` (mixture of isomers) [ID No. 82, (3S)-7-[3-Chloro-2-fluoro-6-(tetrazol-1-yl)phenyl]-1-methyl-5-oxo-N-(6-quinolyl)-2,3,8,8a-tetrahydro-1H-indolizine-3-carboxamide], for which the IC50 against human plasma kallikrein stood at 8 nM; at Factor XIa, 7.9 nM.

In the case of `CC1C[C@@H](C(=O)Nc2ccc3nn(C)cc3c2)N2C(=O)C=C(c3c(-n4cnnn4)ccc(Cl)c3F)CC12` (mixture of isomers) [ID No. 83, (3S)-7-[3-Chloro-2-fluoro-6-(tetrazol-1-yl)phenyl]-1-methyl-N-(2-methyl-2H-indazol-5-yl)-5-oxo-2,3,8,8a-tetrahydro-1H-indolizine-3-carboxamide], the IC50 on human plasma kallikrein is 27 nM; on Factor XIa it was 17.8 nM.

Turning to `CC1C[C@@H](C(=O)Nc2ccc3n[nH]cc3c2)N2C(=O)C=C(c3c(-n4cnnn4)ccc(Cl)c3F)CC12` (mixture of isomers) [ID No. 84, (3S)-7-[3-Chloro-2-fluoro-6-(tetrazol-1-yl)phenyl]-N-(2H-indazol-5-yl)-1-methyl-5-oxo-2,3,8,8a-tetrahydro-1H-indolizine-3-carboxamide], the IC50 against human plasma kallikrein worked out at 27.8 nM; at Factor XIa it was 19.3 nM.

`CC1C[C@@H](C(=O)Nc2ccc3nccnc3c2)N2C(=O)C=C(c3c(-n4cnnn4)ccc(Cl)c3F)CC12` (mixture of isomers) [ID No. 85, (3S)-7-[3-Chloro-2-fluoro-6-(tetrazol-1-yl)phenyl]-1-methyl-5-oxo-N-quinoxalin-6-yl-2,3,8,8a-tetrahydro-1H-indolizine-3-carboxamide]: the IC50 against human plasma kallikrein stood at 12.2 nM; at Factor XIa, 9.9 nM.

With `C[C@@H](O)c1cnc2cc(NC(=O)[C@@H]3CCC4CC(c5c(-n6cnnn6)ccc(Cl)c5F)=CC(=O)N43)ccc2n1` (relative stereo) [ID No. 1, (3S*)-7-(3-chloro-2-fluoro-6-(1H-tetrazol-1-yl)phenyl)-N-(2-((R*)-1-hydroxyethyl)quinoxalin-6-yl)-5-oxo-1,2,3,5,8,8a-hexahydroindolizine-3-carboxamide], the IC50 at human plasma kallikrein is 9.7 nM; at Factor XIa it was 5 nM.

On to `C[C@@H](O)c1cnc2cc(NC(=O)[C@@H]3CCC4CC(c5c(-n6cnnn6)ccc(Cl)c5F)=CC(=O)N43)ccc2n1` (single isomer, unassigned) [ID No. 2], for which the IC50 against human plasma kallikrein was 11.3 nM; on Factor XIa it was 6.4 nM.

For the compound `COCCn1cc2cc(NC(=O)C3CCC4CC(c5c(-n6cnnn6)ccc(Cl)c5F)=CC(=O)N43)ccc2n1` (single isomer, unassigned) [ID No. 3, (3S*)-7-(3-chloro-2-fluoro-6-(1H-tetrazol-1-yl)phenyl)-N-(2-(2-methoxyethyl)-2H-indazol-5-yl)-5-oxo-1,2,3,5,8,8a-hexahydroindolizine-3-carboxamide], the IC50 against human plasma kallikrein stood at 35.6 nM; at Factor XIa, 6 nM.

In the case of `COCCNC(=O)c1ccc(NC(=O)[C@@H]2CC[C@@H]3CC(c4c(-n5cnnn5)ccc(Cl)c4F)=CC(=O)N32)cc1F` (single isomer, unassigned) [ID No. 5, (3S,8aR*)-7-(3-chloro-2-fluoro-6-(1H-tetrazol-1-yl)phenyl)-N-(3-fluoro-4-((2-methoxyethyl)carbamoyl)phenyl)-5-oxo-1,2,3,5,8,8a-hexahydroindolizine-3-carboxamide], the IC50 against human plasma kallikrein was determined as 128 nM; at Factor XIa, 15.5 nM.

With `O=C(Nc1ccc2nn(C(F)F)cc2c1)[C@@H]1CCC2CC(c3c(-n4cnnn4)ccc(Cl)c3F)=CC(=O)N21` (single isomer, unassigned) [ID No. 22, (3S,8aS*)-7-(3-Chloro-2-fluoro-6-(1H-tetrazol-1-yl)phenyl)-N-(2-(difluoromethyl)-2H-indazol-5-yl)-5-oxo-1,2,3,5,8,8a-hexahydroindolizine-3-carboxamide], the IC50 against human plasma kallikrein is 19.3 nM; on Factor XIa, 4.2 nM.

Regarding `O=C(Nc1ccc2nn(C(F)F)cc2c1)[C@@H]1CC[C@@H]2CC(c3c(-n4cnnn4)ccc(Cl)c3F)=CC(=O)N21` (single isomer, unassigned) [ID No. 23], the IC50 against human plasma kallikrein amounted to 31.1 nM; at Factor XIa it was 8.3 nM.

As to `O=C(Nc1ccc(-c2nc(=O)o[nH]2)c(F)c1)[C@@H]1CCC2CC(c3c(-n4cnnn4)ccc(Cl)c3F)=CC(=O)N21` (single isomer, unassigned) [ID No. 35, (3S,8aR*)-7-[3-Chloro-2-fluoro-6-(tetrazol-1-yl)phenyl]-N-[3-fluoro-4-(5-oxo-2H-1,2,4-oxadiazol-3-yl)phenyl]-5-oxo-2,3,8,8a-tetrahydro-1H-indolizine-3-carboxamide], the figures for the IC50 against human plasma kallikrein and on Factor XIa were 6.4 nM and 0.4 nM, respectively.

The values are drawn from patent publication US12286429B2, “5-oxo-1,2,3,5,8,8a-hexahydroindolizine-3-carboxamide derivatives useful as a factor XIa inhibitors” (Janssen Pharmaceutica NV, priority 2021, dated 2025).
